The values below come from ChEMBL document CHEMBL1201862, “PubChem BioAssay data set” (2004).

Test systems include A498; BT-549; CCRF-CEM; COLO 205; HCT-116; Hs-578T; IGROV-1; K562; LOX IMVI; NCI/ADR-RES; OVCAR-8; RPMI-8226; SF-268; SNB-75; SW-620; T47D; U-251; OVCAR-3; HOP-92.
Common to all, as to experiment: NCI tumour cell line growth inhibition, 48 h

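Where inhibition never reached the appropriate level, the endpoint shown equals the highest concentration tested. Otherwise, values were interpolated linearly from a five-concentration, 48-hour dose response in 96-well plates. The concentration for 50% growth inhibition is given as GI50.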 The source made the active and inactive calls. No stated cut-off is given here; in the data, active = GI50 up to about 1.1 µM and inactive = higher. A value given as a limit tells only on which side of the number the result lay.

For the compound `Nc1ncnc2c1ncn2C1OC(COP(=O)(O)CP(=O)(O)O)C(O)C1O` (stereo not given), the GI50 is > 100 µM (inactive) in the test with A498; > 100 µM (inactive) in the test on BT-549; > 100 µM (inactive) in the test on CCRF-CEM; 94.6 µM (inactive) with COLO 205; > 100 µM (inactive) with HCT-116; > 100 µM (inactive) in the test with Hs-578T. Also, the GI50 in the test on IGROV-1, in the test on K562, with LOX IMVI, with NCI/ADR-RES, in the test with OVCAR-8 and in the test with RPMI-8226 was > 100 µM (inactive) in each case. Also, the GI50 with SF-268, in the test with SNB-75, in the test with SW-620, with T47D and with U-251 was > 100 µM (inactive) throughout.

In the case of `Cc1cc2c(c(C(=O)NCCC(=O)N[C@@H](C)C(=O)OCc3ccccc3)c1)Oc1c(cc(C)cc1C(=O)NCCC(=O)N[C@@H](C)C(=O)OCc1ccccc1)S2`, the GI50 in the test with A498, in the test on BT-549, with CCRF-CEM, in the test on COLO 205, in the test on HCT-116 and in the test on Hs-578T was > 100 µM (inactive) throughout. Further, the GI50 in the test on IGROV-1, in the test with K562, with NCI/ADR-RES, in the test with OVCAR-3, with OVCAR-8 and with RPMI-8226 was > 100 µM (inactive) in each case. In addition, the GI50 in the test on SF-268, in the test with SNB-75, in the test on SW-620, in the test on T47D and in the test with U-251 was > 100 µM (inactive) each time.

Consider `CCOC(=O)c1c(N)sc2c1C(C)(C(=O)OCC)CC2` (stereo not given), for which the GI50 in the test with A498 was 18.2 µM (inactive); in the test on BT-549, > 100 µM (inactive); in the test with COLO 205, > 100 µM (inactive); with HCT-116, 97.5 µM (inactive); in the test on HOP-92, 58.3 µM (inactive); in the test with Hs-578T, 78.7 µM (inactive). Moreover, the GI50 is > 100 µM (inactive) in the test on IGROV-1; > 100 µM (inactive) in the test on K562; > 100 µM (inactive) in the test on OVCAR-8; 78.5 µM (inactive) with RPMI-8226; 88.3 µM (inactive) with SNB-75; > 100 µM (inactive) with SW-620. In addition, the GI50 in the test on U-251 was > 100 µM (inactive).

`N#Cc1c(Cl)cccc1Oc1ccc(S(=O)(=O)/N=C(\NN)Nc2ccc(Cl)cc2)cc1`: the GI50 is 32.4 µM (inactive) in the test on A498; 25.1 µM (inactive) in the test on BT-549; 15.6 µM (inactive) with COLO 205; 17.7 µM (inactive) in the test with HCT-116; 21.2 µM (inactive) in the test on HOP-92; 20.1 µM (inactive) in the test on IGROV-1. Moreover, the GI50 is 34.8 µM (inactive) in the test with K562; 17.5 µM (inactive) with LOX IMVI; 32.9 µM (inactive) with NCI/ADR-RES; 19.7 µM (inactive) in the test on OVCAR-3; 31.2 µM (inactive) in the test with OVCAR-8; 32.5 µM (inactive) in the test with RPMI-8226. Further, the GI50 with SF-268 was 22.8 µM (inactive); in the test with SNB-75, 21.6 µM (inactive); in the test on SW-620, 41.9 µM (inactive); in the test with T47D, 20.1 µM (inactive); with U-251 it was 32 µM (inactive).

With `CN1C(=O)c2c(ccc3c2OCO3)C2C(O)Cc3cc4c(cc3C21)OCO4` (stereo not given), the GI50 is 3.18 µM (inactive) with A498; 13.8 µM (inactive) with BT-549; 3.37 µM (inactive) with CCRF-CEM; 3.88 µM (inactive) with COLO 205; 4.34 µM (inactive) in the test on HCT-116; 5.79 µM (inactive) in the test on HOP-92. The GI50 in the test on Hs-578T is 5.26 µM (inactive); in the test on IGROV-1, 2.36 µM (inactive); with K562, 4.71 µM (inactive); in the test on LOX IMVI it was 9.12 µM (inactive); in the test with NCI/ADR-RES, 3.03 µM (inactive); in the test with OVCAR-3, 5.2 µM (inactive). Also, the GI50 was 5.11 µM (inactive) in the test with OVCAR-8; 3.83 µM (inactive) in the test on RPMI-8226; 8.75 µM (inactive) in the test with SF-268; 1.89 µM (inactive) in the test on SNB-75; 3.79 µM (inactive) with SW-620; 4.29 µM (inactive) with U-251.

`Cc1ccc2c(=O)c(C(=O)N(CCO)CCO)c[nH]c2n1`: the GI50 with A498, in the test on BT-549, in the test on CCRF-CEM, in the test on COLO 205, with HCT-116 and in the test on Hs-578T was > 100 µM (inactive) each time. The GI50 in the test on IGROV-1, with K562, in the test with LOX IMVI, with NCI/ADR-RES, with OVCAR-3 and in the test on OVCAR-8 was > 100 µM (inactive) throughout. Moreover, the GI50 in the test with RPMI-8226, with SF-268, in the test on SW-620, with T47D and in the test with U-251 was > 100 µM (inactive) in each case.

For `CN(CC#N)C(=O)Cc1ccc([N+](=O)[O-])cc1`, the GI50 in the test with A498, in the test with BT-549, in the test with CCRF-CEM, with COLO 205, with HCT-116 and in the test with Hs-578T was > 10 µM (inactive) in each case. Moreover, the GI50 in the test on IGROV-1, with K562, in the test with LOX IMVI, with NCI/ADR-RES, in the test on OVCAR-3 and with OVCAR-8 was > 10 µM (inactive) each time. The GI50 with RPMI-8226, in the test on SF-268, in the test on SW-620, in the test with T47D and with U-251 was > 10 µM (inactive) throughout.

Take `COC(=O)C1=C(OC)[C@H]2C#C/C=C\C#C[C@@H]3Nc4c(cc(O)c5c4C(=O)c4ccccc4C5=O)[C@]24O[C@@]34[C@H]1C`: the GI50 in the test on A498 is < 0.01 µM (active); in the test with BT-549, < 0.01 µM (active); in the test with CCRF-CEM it was < 0.01 µM (active); with COLO 205, < 0.01 µM (active); in the test with HCT-116, 0.0555 µM (active); with HOP-92, < 0.01 µM (active). In addition, the GI50 in the test on Hs-578T was 0.173 µM (active); with IGROV-1, < 0.0127 µM (active); with K562, < 0.01 µM (active); in the test on LOX IMVI, < 0.01 µM (active); with NCI/ADR-RES it was < 0.01 µM (active); in the test on OVCAR-3, < 0.0153 µM (active). Also, the GI50 with OVCAR-8, in the test with RPMI-8226, with SF-268, in the test with SNB-75, in the test with SW-620 and with U-251 was < 0.01 µM (active) each time.

Take `Cc1c2ccccc2c(C2C3C(=O)N(c4ccc(Br)cc4)C(=O)C3ON2C(C(N)=O)c2ccccc2)c2ccccc12` (stereo not given): the GI50 was 2.98 µM (inactive) in the test with A498; 7.29 µM (inactive) in the test on BT-549; 3.18 µM (inactive) in the test on CCRF-CEM; 1.77 µM (inactive) in the test with COLO 205; 4.37 µM (inactive) in the test on HCT-116; 9.4 µM (inactive) in the test on HOP-92. Further, the GI50 with IGROV-1 is 3.4 µM (inactive); in the test with K562, 4.11 µM (inactive); in the test on LOX IMVI, 4.97 µM (inactive); with NCI/ADR-RES, 4.39 µM (inactive); in the test on OVCAR-3, 3.01 µM (inactive); in the test with OVCAR-8, 6.78 µM (inactive). Moreover, the GI50 was 1.89 µM (inactive) in the test on RPMI-8226; 9.14 µM (inactive) with SF-268; 5.02 µM (inactive) in the test on SNB-75; 3.98 µM (inactive) in the test on SW-620; 3.18 µM (inactive) in the test with T47D; 2.69 µM (inactive) in the test on U-251.

On to `N#CC(C#N)=CNC(=S)Nc1ccc(S(=O)(=O)Nc2nccs2)cc1`, for which the GI50 with A498, in the test with BT-549, with COLO 205, with HCT-116, in the test with HOP-92 and in the test on IGROV-1 was > 100 µM (inactive) each time. The GI50 in the test on LOX IMVI, in the test with NCI/ADR-RES, in the test with OVCAR-3, with OVCAR-8, in the test on SF-268 and in the test on SNB-75 was > 100 µM (inactive) each time. Besides, the GI50 with SW-620, in the test with T47D and in the test with U-251 was > 100 µM (inactive) in each case.

Consider `NN/C(=N\S(=O)(=O)c1cc(Cl)c(Oc2ccc([N+](=O)[O-])cc2Cl)c(Cl)c1)Nc1ccc(Cl)cc1`, for which the GI50 in the test with A498 was 22.8 µM (inactive); in the test on BT-549, 18.4 µM (inactive); in the test on CCRF-CEM, 10.8 µM (inactive); with COLO 205, 15.6 µM (inactive); in the test with HCT-116, 15.7 µM (inactive); in the test on HOP-92, 19.9 µM (inactive). Besides, the GI50 with IGROV-1 was 20.2 µM (inactive); in the test on K562, 27 µM (inactive); with LOX IMVI it was 21 µM (inactive); with NCI/ADR-RES, 23.2 µM (inactive); in the test on OVCAR-3, 15.9 µM (inactive); in the test on OVCAR-8, 24.2 µM (inactive). For the same compound, the GI50 in the test with RPMI-8226 is 31.8 µM (inactive); in the test on SF-268, 19.5 µM (inactive); in the test on SNB-75 it was 23.7 µM (inactive); in the test on SW-620, 28.7 µM (inactive); in the test on T47D it was 19.8 µM (inactive); with U-251, 16.2 µM (inactive).
